Assay results as given in PMC4046888 (Cancer cell, 2011).
Read-outs that look alike come from different tables or passages of the source.

Experiments:
KOPN-8 cells (MLL-ENL) = assay: Cell proliferation, viable cell count; assay type: cell-based; conditions: Homo sapiens, KOPN-8, 336 h, read-out: IC50 inhibition of cell proliferation
[1] = test system: U937 cells (nonrearranged); assay: Cell proliferation, viable cell count; assay type: cell-based; conditions: Homo sapiens, U-937, 336 h, read-out: IC50 inhibition of cell proliferation
[2] = test system: Kasumi-1 cells (nonrearranged); assay: Cell proliferation, viable cell count; assay type: cell-based; conditions: Homo sapiens, Kasumi 1, 336 h, read-out: IC50 inhibition of cell proliferation
SETD7 = SETD7 (Homo sapiens, UniProt Q8WTS6); assay: Histone methyltransferase panel IC50, balanced conditions
[3] = test system: HOXA9 and MEIS1 transcript levels in MOLM-13 cells; assay: Quantitative real-time PCR, concentration response; conditions: Homo sapiens, MOLM-13, 144 h
[4] = test system: CD14 expression in MOLM-13 cells; assay: Flow cytometry for cell surface CD14; assay type: cell-based, human; conditions: 3 μM, 12 days
[5] = test system: HOXA9, MEIS1 and TBP mRNA in MV4-11 and MOLM-13 cells; assay: Quantitative real-time PCR, time course at 3 μM; assay type: cell-based, human
[6] = test system: H3K79me2 levels in MOLM-13 cells; assay: Immunoblot of extracted histones for H3K79me2; assay type: cell-based, human; conditions: 4 days, increasing concentrations
MOLM-13 cells (MLL-AF9) = assay: Cell proliferation, viable cell count; assay type: cell-based, human
Solubility = assay type: physicochemical
MV4-11 cells = assay: Flow cytometry for DNA content and Annexin V; assay type: cell-based, human; conditions: 3 μM
[7] = test system: H3K79me2 in Hoxa9-Meis1a transformed hematopoietic progenitors; assay: Immunoblot for H3K79me2 in transformed progenitors; assay type: cell-based, murine; conditions: 10 days
[8] = test system: hematopoietic progenitors transformed by coexpression of HoxA9 and Meis1a; assay: Proliferation of transformed hematopoietic progenitors; assay type: cell-based, murine; conditions: concentrations of up to 30 μM
[9] = test system: primary murine hematopoietic progenitors transformed by MLL-AF9; assay: as above; assay type: cell-based; conditions: 10 days treatment, MTT at day 12
[10] = test system: H3K79me2 levels in MV4-11 cells; assay: Immunoblot of extracted histones for H3K79me2; assay type: cell-based, human
[11] = test system: H3K79me2 levels in Jurkat cells; assay: Immunoblot of extracted histones for H3K79me2; assay type: cell-based, human; conditions: 4 days, increasing concentrations
[12] = test system: 697 cells (nonrearranged); assay: Cell proliferation, viable cell count; assay type: cell-based; conditions: Homo sapiens, 336 h, read-out: IC50 inhibition of cell proliferation
SEM cells (MLL-AF4) = assay: Cell proliferation, viable cell count; assay type: cell-based; conditions: Homo sapiens, 336 h, read-out: IC50 inhibition of cell proliferation
[13] = test system: MV4-11 cells injected into tail vein of NSG mice; assay: Disseminated MV4-11 leukemia model, survival; assay type: in vivo, mouse
CARM1 = CARM1 (Homo sapiens, UniProt Q86X55); assay: Histone methyltransferase panel IC50, balanced conditions
[14] = test system: REH cells (nonrearranged); assay: Cell proliferation, viable cell count; assay type: cell-based; conditions: Homo sapiens, 336 h, read-out: IC50 inhibition of cell proliferation
normal C57BL/6 mice = assay: Hematologic analysis and tolerability in normal mice; assay type: in vivo, mouse; conditions: pump 150 mg/ml, 14 days
MV4-11 cells (MLL-AF4) = assay: Cell proliferation, viable cell count; assay type: cell-based, human
PRMT8 = PRMT8 (Homo sapiens, UniProt Q9NR22); assay: Histone methyltransferase panel IC50, balanced conditions
WHSC1 = WHSC1 (Homo sapiens, UniProt O96028); assay: as above
[15] = biological target: EZH2 (in the context of the PRC2 multiprotein complex) (Homo sapiens, UniProt Q15910); assay: as above
[16] = test system: H3K79me2 in MLL-AF9 transformed hematopoietic progenitors; assay: Immunoblot for H3K79me2 in transformed progenitors; assay type: cell-based, murine; conditions: 10 days
[17] = test system: HL-60 cells (nonrearranged); assay: Cell proliferation, viable cell count; assay type: cell-based; conditions: Homo sapiens, HL-60, 336 h, read-out: IC50 inhibition of cell proliferation
PRMT5 = PRMT5 (Homo sapiens, UniProt O14744); assay: Histone methyltransferase panel IC50, balanced conditions
[18] = Plasma concentration by LC-MS/MS, mini-osmotic pump infusion; assay type: in vivo, mouse; conditions: for average steady-state plasma concentration: pilot PK
[19] = test system: histone methyl marks in MV4-11 cells; assay: Immunoblot with panel of methyl-lysine and methyl-arginine specific antibodies; assay type: cell-based, human; conditions: 10 μM
[20] = test system: HOXA9 and MEIS1 transcript levels in MV4-11 cells; assay: Quantitative real-time PCR, concentration response; conditions: Homo sapiens, MV4-11, 144 h
[21] = biological target: EZH1 (in the context of the PRC2 multiprotein complex) (Homo sapiens, UniProt Q92800); assay: Histone methyltransferase panel IC50, balanced conditions
EHMT2 = EHMT2 (Homo sapiens, UniProt Q96KQ7); assay: as above
RS4;11 cells (MLL-AF4) = assay: Cell proliferation, viable cell count; assay type: cell-based; conditions: Homo sapiens, RS4-11, 336 h, read-out: IC50 inhibition of cell proliferation
PRMT1 = PRMT1 (Homo sapiens, UniProt Q99873); assay: Histone methyltransferase panel IC50, balanced conditions
[22] = test system: Jurkat cells (nonrearranged); assay: Cell proliferation, viable cell count; assay type: cell-based, human
[23] = read-out: IC50 decrease of HOXA9 transcript
[24] = read-out: IC50 decrease of MEIS1 transcript

PRMT5, sequence (O14744 whole entry, the tested form may be a part): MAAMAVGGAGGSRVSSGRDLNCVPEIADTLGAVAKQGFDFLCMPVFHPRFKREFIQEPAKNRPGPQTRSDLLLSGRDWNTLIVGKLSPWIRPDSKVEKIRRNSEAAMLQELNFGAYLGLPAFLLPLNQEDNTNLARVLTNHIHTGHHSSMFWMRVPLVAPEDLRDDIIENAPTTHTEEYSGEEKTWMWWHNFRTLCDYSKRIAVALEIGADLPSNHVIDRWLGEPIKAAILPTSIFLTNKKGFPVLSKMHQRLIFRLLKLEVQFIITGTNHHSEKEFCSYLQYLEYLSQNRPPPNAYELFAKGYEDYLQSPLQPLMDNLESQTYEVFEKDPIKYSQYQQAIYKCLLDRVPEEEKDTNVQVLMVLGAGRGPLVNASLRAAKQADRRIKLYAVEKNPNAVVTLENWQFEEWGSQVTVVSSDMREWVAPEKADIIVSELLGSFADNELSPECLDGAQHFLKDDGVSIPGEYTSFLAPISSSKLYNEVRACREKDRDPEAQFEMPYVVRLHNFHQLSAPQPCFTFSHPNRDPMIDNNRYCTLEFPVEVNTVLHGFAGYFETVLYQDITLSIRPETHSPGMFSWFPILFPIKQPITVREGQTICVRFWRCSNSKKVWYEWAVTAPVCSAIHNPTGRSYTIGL
PRMT5, sequence (Q9BQA1 whole entry partner, the tested form may be a part): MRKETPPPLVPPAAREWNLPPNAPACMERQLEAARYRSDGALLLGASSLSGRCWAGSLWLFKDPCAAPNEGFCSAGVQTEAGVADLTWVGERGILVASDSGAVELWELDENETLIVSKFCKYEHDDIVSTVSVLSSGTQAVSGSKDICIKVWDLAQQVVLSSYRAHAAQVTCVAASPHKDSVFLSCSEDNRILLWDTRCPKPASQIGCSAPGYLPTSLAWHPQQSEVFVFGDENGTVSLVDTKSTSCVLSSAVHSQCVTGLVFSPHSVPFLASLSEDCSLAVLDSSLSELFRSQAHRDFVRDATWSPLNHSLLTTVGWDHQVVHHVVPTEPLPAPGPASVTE
CARM1, sequence (Q86X55 whole entry): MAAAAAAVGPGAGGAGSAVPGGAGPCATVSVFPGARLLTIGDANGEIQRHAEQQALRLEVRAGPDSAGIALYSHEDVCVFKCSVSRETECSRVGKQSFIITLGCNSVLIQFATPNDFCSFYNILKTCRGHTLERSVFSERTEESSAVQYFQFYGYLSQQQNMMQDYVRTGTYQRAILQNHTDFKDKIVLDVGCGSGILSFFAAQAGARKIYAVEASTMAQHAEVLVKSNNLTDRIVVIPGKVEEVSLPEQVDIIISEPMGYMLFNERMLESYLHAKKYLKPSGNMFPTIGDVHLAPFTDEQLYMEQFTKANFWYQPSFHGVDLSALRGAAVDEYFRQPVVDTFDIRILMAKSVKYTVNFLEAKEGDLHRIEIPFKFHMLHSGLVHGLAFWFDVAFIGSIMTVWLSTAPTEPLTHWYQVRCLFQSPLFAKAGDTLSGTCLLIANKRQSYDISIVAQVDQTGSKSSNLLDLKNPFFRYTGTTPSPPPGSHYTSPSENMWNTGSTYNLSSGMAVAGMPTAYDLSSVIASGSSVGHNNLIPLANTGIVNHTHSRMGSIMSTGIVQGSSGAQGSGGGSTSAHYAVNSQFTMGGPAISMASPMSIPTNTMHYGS
PRMT1, sequence (Q99873 whole entry): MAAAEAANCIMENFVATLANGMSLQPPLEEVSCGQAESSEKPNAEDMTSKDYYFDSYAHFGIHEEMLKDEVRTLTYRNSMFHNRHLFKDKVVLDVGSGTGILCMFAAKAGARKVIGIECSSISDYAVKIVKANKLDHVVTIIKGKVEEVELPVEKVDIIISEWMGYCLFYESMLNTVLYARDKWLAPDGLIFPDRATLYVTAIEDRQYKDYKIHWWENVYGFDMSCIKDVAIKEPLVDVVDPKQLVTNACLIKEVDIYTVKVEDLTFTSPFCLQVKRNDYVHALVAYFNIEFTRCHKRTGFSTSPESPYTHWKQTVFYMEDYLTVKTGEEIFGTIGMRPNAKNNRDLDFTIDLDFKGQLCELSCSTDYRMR
EZH1 (in the context of the PRC2 multiprotein complex), sequence (Q92800 whole entry): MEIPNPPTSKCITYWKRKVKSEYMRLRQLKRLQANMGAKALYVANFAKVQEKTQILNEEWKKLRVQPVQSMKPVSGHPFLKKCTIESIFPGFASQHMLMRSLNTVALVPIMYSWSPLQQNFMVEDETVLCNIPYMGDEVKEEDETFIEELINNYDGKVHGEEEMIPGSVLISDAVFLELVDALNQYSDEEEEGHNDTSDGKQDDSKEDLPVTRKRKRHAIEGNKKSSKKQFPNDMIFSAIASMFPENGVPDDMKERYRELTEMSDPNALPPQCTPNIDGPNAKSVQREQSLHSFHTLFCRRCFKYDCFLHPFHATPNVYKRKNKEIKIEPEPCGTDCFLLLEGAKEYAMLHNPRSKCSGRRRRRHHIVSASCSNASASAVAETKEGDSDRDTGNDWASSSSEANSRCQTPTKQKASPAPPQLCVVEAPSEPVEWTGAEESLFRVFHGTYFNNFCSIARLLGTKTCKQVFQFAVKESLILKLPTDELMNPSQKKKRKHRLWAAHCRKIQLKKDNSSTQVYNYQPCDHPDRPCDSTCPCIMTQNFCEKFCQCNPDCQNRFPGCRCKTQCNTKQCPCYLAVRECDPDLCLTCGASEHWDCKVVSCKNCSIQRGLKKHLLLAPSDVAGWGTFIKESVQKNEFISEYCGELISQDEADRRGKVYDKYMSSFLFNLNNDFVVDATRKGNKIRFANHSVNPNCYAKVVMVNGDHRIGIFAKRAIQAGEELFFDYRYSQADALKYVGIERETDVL
EZH1 (in the context of the PRC2 multiprotein complex), sequence (O75530 whole entry partner): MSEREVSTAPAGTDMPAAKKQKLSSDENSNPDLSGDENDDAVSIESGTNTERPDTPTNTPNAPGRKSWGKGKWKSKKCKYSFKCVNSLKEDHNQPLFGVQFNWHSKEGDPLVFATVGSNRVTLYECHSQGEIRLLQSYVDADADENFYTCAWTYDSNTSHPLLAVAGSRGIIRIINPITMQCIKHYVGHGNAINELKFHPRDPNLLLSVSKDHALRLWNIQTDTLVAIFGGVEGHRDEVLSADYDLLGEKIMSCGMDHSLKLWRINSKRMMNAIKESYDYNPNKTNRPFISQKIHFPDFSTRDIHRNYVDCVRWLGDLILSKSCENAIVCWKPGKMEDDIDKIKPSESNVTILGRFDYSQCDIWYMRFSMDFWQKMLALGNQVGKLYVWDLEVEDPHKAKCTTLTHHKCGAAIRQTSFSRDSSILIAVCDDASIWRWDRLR
EZH1 (in the context of the PRC2 multiprotein complex), sequence (Q15022 whole entry partner): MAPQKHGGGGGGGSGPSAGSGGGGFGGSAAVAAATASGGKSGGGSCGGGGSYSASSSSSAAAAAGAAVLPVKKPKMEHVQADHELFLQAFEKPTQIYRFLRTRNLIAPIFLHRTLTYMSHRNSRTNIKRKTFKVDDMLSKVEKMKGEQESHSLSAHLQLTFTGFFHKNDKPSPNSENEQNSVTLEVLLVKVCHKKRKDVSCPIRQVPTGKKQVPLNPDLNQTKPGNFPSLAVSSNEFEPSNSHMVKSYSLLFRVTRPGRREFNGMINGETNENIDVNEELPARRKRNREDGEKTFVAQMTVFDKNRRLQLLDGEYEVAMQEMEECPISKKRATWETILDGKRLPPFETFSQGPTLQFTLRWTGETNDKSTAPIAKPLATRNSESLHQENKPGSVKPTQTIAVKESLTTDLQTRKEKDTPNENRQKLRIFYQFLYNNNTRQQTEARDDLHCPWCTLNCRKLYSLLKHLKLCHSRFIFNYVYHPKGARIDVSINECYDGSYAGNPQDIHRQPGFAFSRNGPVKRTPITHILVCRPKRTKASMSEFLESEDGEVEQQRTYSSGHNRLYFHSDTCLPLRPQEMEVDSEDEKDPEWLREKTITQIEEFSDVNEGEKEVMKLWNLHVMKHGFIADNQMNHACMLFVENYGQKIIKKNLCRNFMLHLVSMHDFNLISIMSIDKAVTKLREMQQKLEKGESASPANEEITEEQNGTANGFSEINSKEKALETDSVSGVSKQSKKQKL
EZH1 (in the context of the PRC2 multiprotein complex), sequence (Q09028 whole entry partner): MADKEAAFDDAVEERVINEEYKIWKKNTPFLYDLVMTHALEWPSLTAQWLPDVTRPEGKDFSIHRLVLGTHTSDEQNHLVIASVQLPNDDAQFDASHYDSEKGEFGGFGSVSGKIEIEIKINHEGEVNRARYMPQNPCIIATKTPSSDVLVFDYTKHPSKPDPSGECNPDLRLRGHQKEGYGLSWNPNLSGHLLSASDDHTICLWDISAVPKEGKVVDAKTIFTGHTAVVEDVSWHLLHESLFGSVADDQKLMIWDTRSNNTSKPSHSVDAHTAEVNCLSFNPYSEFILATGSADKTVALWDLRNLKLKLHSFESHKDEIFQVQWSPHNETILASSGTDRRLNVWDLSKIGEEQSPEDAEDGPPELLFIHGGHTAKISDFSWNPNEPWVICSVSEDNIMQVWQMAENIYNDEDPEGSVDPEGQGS
PRMT8, sequence (Q9NR22 whole entry): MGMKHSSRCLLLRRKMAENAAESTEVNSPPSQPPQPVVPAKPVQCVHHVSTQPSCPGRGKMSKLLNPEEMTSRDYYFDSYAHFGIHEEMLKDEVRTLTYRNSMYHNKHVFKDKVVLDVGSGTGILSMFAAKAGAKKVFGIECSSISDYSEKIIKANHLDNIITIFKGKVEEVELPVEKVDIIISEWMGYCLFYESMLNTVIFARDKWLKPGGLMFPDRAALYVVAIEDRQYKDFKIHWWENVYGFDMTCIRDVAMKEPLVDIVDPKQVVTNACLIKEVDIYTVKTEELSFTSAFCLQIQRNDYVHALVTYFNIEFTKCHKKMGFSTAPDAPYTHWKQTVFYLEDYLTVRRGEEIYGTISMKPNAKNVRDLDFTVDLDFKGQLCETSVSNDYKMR

## CC(C)N(CCCNC(=O)Nc1ccc(C(C)(C)C)cc1)C[C@H]1O[C@@H](n2ccc3c(N)ncnc32)[C@H](O)[C@@H]1O [EPZ004777]
KOPN-8 cells (MLL-ENL)
  IC50: 0.62 µM
[1]
  IC50: > 50 µM
[2]
  IC50: 33 µM
SETD7
  IC50: > 50 µM
[3]; [23]
  IC50: ~0.7 µM
[3]; [24]
  IC50: ~0.7 µM
[4]
  cell surface expression of CD14: induced
[5]
  time to maximal reduction of HOXA9 and MEIS1 transcripts: 6 to 8 days
  time to significant decrease of HOXA9 and MEIS1 transcripts: ≤ 48 h
[5]; 8 days
  transcript levels of housekeeping gene TBP: unaffected
[6]
  global H3K79me2 levels: concentration-dependent reduction
MOLM-13 cells (MLL-AF9); 3 μM, extended treatment
  number of viable cells: dramatically reduced
MOLM-13 cells (MLL-AF9); Homo sapiens, 336 h, read-out: IC50 inhibition of cell proliferation
  IC50: 0.72 µM
Solubility
  solubility: ≤ 50 µM
Solubility; 15% ethanol, 50% PEG300, 35% water
  solubility: 150 mg/mL
MV4-11 cells; 4 days
  G0/G1 phase cells: modest increase
  S-phase cells: decrease
MV4-11 cells; days 4 to 10
  sub-G1 and Annexin-positive cells: increase
[7]
  H3K79 methylation: inhibited H3K79 methylation
[8]
  survival of transformed progenitors: unaffected
[9]
  concentration strongly inhibiting proliferation: ≥ 3 µM
[10]; 3 μM
  time to full depletion of H3K79me2: 4 to 5 days
[10]; 4 days, increasing concentrations
  global H3K79me2 levels: concentration-dependent reduction
[11]
  global H3K79me2 levels: concentration-dependent reduction
[12]
  IC50: 36.6 µM
SEM cells (MLL-AF4)
  IC50: 1.72 µM
[13]; 100 and 150 mg/ml groups
  pump implant site reaction: Local irritation at the pump implant site
[13]; NSG mice, 14 days
  body weight: no significant weight loss
  tolerability: well tolerated
[13]; pumps 50, 100 or 150 mg/ml, 14 days exposure, log-rank test
  median survival: dose-dependent and statistically significant increase
CARM1
  IC50: > 50 µM
[14]
  IC50: 13.9 µM
Normal C57BL/6 mice
  bone marrow cellularity: preserved
  colony forming potential of bone marrow progenitors: did not find any significant differences
  granulocyte/monocyte progenitors (GMP): not significantly affected
  overt toxicity: no overt toxicity
  tolerability: well tolerated
Normal C57BL/6 mice; versus control mice
  populations highly enriched for hematopoietic stem cells: did not reveal any difference
Normal C57BL/6 mice; most apparent in CMP and MEP
  committed progenitors (Lin-Sca-1-c-Kit+): statistically significant decrease
Normal C57BL/6 mice; neutrophils, monocytes, lymphocytes increased
  total white blood cell count: statistically significant increase
MV4-11 cells (MLL-AF4); 3 μM, extended treatment
  number of viable cells: dramatically reduced
MV4-11 cells (MLL-AF4); Homo sapiens, MV4-11, 336 h, read-out: IC50 inhibition of cell proliferation
  IC50: 0.17 µM
PRMT8
  IC50: > 50 µM
WHSC1
  IC50: > 50 µM
[15]
  IC50: > 50 µM
[16]
  H3K79 methylation: inhibited H3K79 methylation
[17]
  IC50: > 50 µM
PRMT5; IC50, ± 95% confidence interval
  IC50: 0.521 ± 0.137 µM
PRMT5; biochemical IC50, only HMT other than DOT1L below this bound
  IC50: < 50 µM
[18]; precluded conventional dosing
  pharmacokinetic properties: poor
[18]; pump 50 mg/ml, s.c. MV4-11 xenograft mice
  average circulating plasma level: 0.55 ± 0.12 µM
[18]; pump 100 mg/ml
  average steady-state plasma concentration: 0.64 ± 0.48 µM
[18]; pump 150 mg/ml
  average steady-state plasma concentration: 0.84 ± 0.45 µM
[19]
  H3K79me1 levels: reduced
  H4R3me2 (residue targeted by PRMT5): no changes
  methylation state of H3K9 and H3K4 (PRDM and SMYD family targets): did not change
[20]; [23]
  IC50: ~0.7 µM
[20]; [24]
  IC50: ~0.7 µM
[21]
  IC50: > 50 µM
EHMT2
  IC50: > 50 µM
RS4;11 cells (MLL-AF4)
  IC50: 6.47 µM
PRMT1
  IC50: > 50 µM
[22]; 3 μM, extended treatment
  growth of cells: unaffected
[22]; Homo sapiens, Jurkat, 336 h, read-out: IC50 inhibition of cell proliferation
  IC50: > 50 µM
